Experiments:
[1] = solubility in parenteral diluents; conditions: parenteral diluents suitable for injection
[2] = rate of absorption after parenteral versus oral administration; assay type: in vivo; conditions: such as IM, versus oral administration of the same dose
Procedure: Intramuscular injection is the preferred mode of delivery to the mammal being treated particularly in emergency situations. […] Preferably the lyophilized pharmaceutical formulation of this invention is diluted with aqueous solvent suitable for injection and a liquid unit dosage form prepared for administration to a mammal.

Compound | solubility in parenteral diluents [1] | rate of absorption [2]
Cc1cc2c(s1)Nc1ccccc1N=C2N1CCN(C)CC1 [Form II] | does not readily dissolve | 
Cc1cc2c(s1)Nc1ccccc1N=C2N1CCN(C)CC1 [olanzapine, 2-methyl-4-(4-methyl-1-piperazinyl)-10H-thieno[2,3-b][1,5]benzodiazepine] | relatively insoluble | more rapid
